Measurements taken from patent US5488051A, “Substituted 5,6-dihydro-5-oxo-1,4-dithiino-(2,3-d)-pyridazine-2,3-dicarbonitriles, compositions containing them and their use as antimicrobials” (The Dow Chemical Company, priority 1994, dated 1996).
Values after ≈ are worked out from the molar mass of the structure shown. Read-outs that look alike come from different tables or passages of the source.

Experiments:
Aspergillus niger (An) = test: MIC for Aspergillus niger, malt yeast agar; format: cell-based, Aspergillus niger ATCC 16404; conditions: malt yeast agar; 30° C., 72 hours for fungi; read-out: Minimum Inhibitory Concentration (MIC), An
Procedure: (§1) The minimum inhibitory concentration (MIC) for the compounds listed in Table I is determined for 9 bacteria, using nutrient agar; and 7 yeast and fungi, using malt yeast agar. A one percent solution of the test compound is prepared in a mixture of acetone and water.
(§2) Malt yeast agar is prepared by adding 3 g yeast extract and 45 g malt agar per liter of deionized water. The specific agar is dispensed in 30 mL aliquots into 25×200 mm test tubes, capped and autoclaved for 15 minutes at 115° C.
(§3) The test tubes containing the malt yeast agar and the nutrient agar are cooled in a water bath until the temperature of the agar is 48° C. Then, an appropriate amount of the one percent solution of the test compound is added (except in the controls where no compound is added) to the respective test tubes so that the final concentrations are zero (0), 1.0, 2.5, 5, 10, 25, 50, 100, 250 and 500 parts per million of the test compound in each of the respective type of agar. The contents of each of the test tubes are then transferred to separate petri plates. After drying for 24 hours, the petri plates containing nutrient agar are inoculated with bacteria and those containing malt yeast agar are inoculated with yeast and fungi.
(§4) The inoculation with the yeast and fungi is accomplished as follows. Cultures of yeast and fungi are incubated for seven days on malt yeast agar at 30° C. These cultures are used to prepare suspensions by the following procedure. A suspension of each organism is prepared by adding 10 mL of sterile saline and 10 microliters of octylphenoxy polyethoxy ethanol to the agar slant of yeast or fungi. The sterile saline/octylphenoxy polyethoxy ethanol solution is then agitated with a sterile swab to suspend the microorganism grown on the slant. Each resulting suspension is diluted into sterile saline (1 part suspension: 9 parts sterile saline). Aliquots of these dilutions are placed in individual wells of Steer's Replicator and petri plates inoculated as previously described. The petri plates are incubated at 30° C. and read after 48 hours for yeast and 72 hours for fungi.
(§5) Table II list the bacteria, yeast and fungi used in the MIC test described above along with their respective American Type Culture Collection (ATCC) identification numbers.

Fusarium oxysporum (Fo) = test: MIC for Fusarium oxysporum, malt yeast agar; format: cell-based, Fusarium oxysporum ATCC 48112; conditions: malt yeast agar; 30° C., 72 hours for fungi; read-out: Minimum Inhibitory Concentration (MIC), Fo
Procedure: as §1, §2, §3, §4, §5

[1] = tested on: Aureobasidium pullulan (Ap); test: MIC for Aureobasidium pullulan, malt yeast agar; format: cell-based, Aureobasidium pullulan ATCC 16622; conditions: malt yeast agar; 30° C.; 48 hours for yeast and 72 hours for fungi; read-out: Minimum Inhibitory Concentration (MIC), Ap
Procedure: as §1, §2, §3, §4, §5

Proteus vulgaris (Pv) = test: MIC for Proteus vulgaris, nutrient agar; format: cell-based, Proteus vulgaris ATCC 881; conditions: 30° C., 48 hours, read-out: Minimum Inhibitory Concentration (MIC), Pv
Procedure: as §1
(§6) Nutrient agar is prepared at pH 6.8, representing a neutral medium, and at pH 8.2, representing an alkaline medium. The nutrient agars are prepared by adding 23 g of nutrient agar to one-liter of deionized water. In addition, the alkaline medium is prepared by adjusting a 0.04M solution of N-[tris-(hydroxymethyl)methyl]-glycine buffered deionized water with concentrated sodium hydroxide to a pH of 8.5.
as §3
(§7) The inoculation with bacteria is accomplished by using the following procedure. Twenty-four hour-cultures of each of the bacteria are prepared by incubating the respective bacteria in tubes containing nutrient broth for 24 hours at 30° C. in a shaker. Dilutions of each of the 24 hour-cultures are made so that nine separate suspensions (one for each of the nine test bacteria) are made, each containing 10^8 colony forming units (CFU) per mL of suspension of a particular bacteria. Aliquots of 0.3 mL of each of the bacterial suspensions are used to fill the individual wells of Steer's Replicator. For each microbial suspension, 0.3 mL was used to fill three wells (i.e., three wells of 0.3 mL each) so that for the nine different bacteria, 27 wells are filled. The Steer's Replicator is then used to inoculate both the neutral and alkaline pH nutrient agar petri plates.
(§8) The inoculated petri plates are incubated at 30° C. for 48 hours and then read to determine if the test compound which is incorporated into the agar prevented growth of the respective bacteria.
as §5

[2] = tested on: Penicillium chrysogenum (Pc); test: MIC for Penicillium chrysogenum, malt yeast agar; format: cell-based, Penicillium chrysogenum ATCC 9480; conditions: malt yeast agar; 30° C., 72 hours for fungi; read-out: Minimum Inhibitory Concentration (MIC), PC
Procedure: as §1, §2, §3, §4, §5

[3] = tested on: Pseudomonas aeruginosa (Pa); test: MIC for Pseudomonas aeruginosa, nutrient agar; format: cell-based, Pseudomonas aeruginosa ATCC 10145; conditions: 48 hours, read-out: Minimum Inhibitory Concentration (MIC), Pa
Procedure: as §1, §6, §3, §7, §8, §5

Saccharomyces cerevisiae = test: MIC for Saccharomyces cerevisiae, malt yeast agar; format: cell-based, Saccharomyces cerevisiae ATCC 4105; conditions: malt yeast agar, 30° C., 48 hours for yeast, read-out: Minimum Inhibitory Concentration (MIC), Sc
Procedure: as §1, §2, §3, §4, §5

Candida albicans (Ca) = test: MIC for Candida albicans, malt yeast agar; format: cell-based, Candida albicans ATCC 10231; conditions: malt yeast agar; 30° C., 48 hours for yeast; read-out: Minimum Inhibitory Concentration (MIC), Ca
Procedure: as §1, §2, §3, §4, §5

[4] = tested on: Klebsiella pneumonias (Kp); test: MIC for Klebsiella pneumonias, nutrient agar; format: cell-based, Klebsiella pneumonias ATCC 8308; conditions: 30° C., 48 hours, read-out: Minimum Inhibitory Concentration (MIC), Kp
Procedure: as §1, §6, §3, §7, §8, §5

[5] = tested on: Staphylococcus aureus (Sa); test: MIC for Staphylococcus aureus, nutrient agar; format: cell-based, Staphylococcus aureus ATCC 6538; conditions: 30° C., 48 hours, read-out: Minimum Inhibitory Concentration (MIC), Sa
Procedure: as §1, §6, §3, §7, §8, §5

[6] = tested on: Enterobacter aerogenes (Ea); test: MIC for Enterobacter aerogenes, nutrient agar; format: cell-based, Enterobacter aerogenes ATCC 13048; conditions: Klebsiella aerogenes, nutrient agar, 30° C., 48 hours, read-out: Minimum Inhibitory Concentration (MIC), Ea
Procedure: as §1, §6, §3, §7, §8, §5

Trichoderma viride (Tv) = test: MIC for Trichoderma viride, malt yeast agar; format: cell-based, Trichoderma viride ATCC 8678; conditions: malt yeast agar; 30° C., 72 hours for fungi; read-out: Minimum Inhibitory Concentration (MIC), Tv
Procedure: as §1, §2, §3, §4, §5

Bacillus subtilis (Bs) = test: MIC for Bacillus subtilis, nutrient agar; format: cell-based, Bacillus subtilis ATCC 8473; conditions: 30° C., 48 hours, read-out: Minimum Inhibitory Concentration (MIC), Bs
Procedure: as §1, §6, §3, §7, §8, §5

Escherichia coli (Ec) = test: MIC for Escherichia coli, nutrient agar; format: cell-based, Escherichia coli ATCC 11229; conditions: 30° C., 48 hours, read-out: Minimum Inhibitory Concentration (MIC), Ec
Procedure: as §1, §6, §3, §7, §8, §5

Salmonella choleraesuis = test: MIC for Salmonella choleraesuis, nutrient agar; format: cell-based, Salmonella choleraesuis ATCC 10708; conditions: Salmonella enterica, 30° C., 48 hours, read-out: Minimum Inhibitory Concentration (MIC), SC
Procedure: as §1, §6, §3, §7, §8, §5

[7] = tested on: Pseudomonas aeruginosa (PRD-10); test: MIC for Pseudomonas aeruginosa PRD-10, nutrient agar; format: cell-based, Pseudomonas aeruginosa ATCC 15442; conditions: 30° C., 48 hours, read-out: Minimum Inhibitory Concentration (MIC), PRD
Procedure: as §1, §6, §3, §7, §8, §5

SMILES | MIC (Aspergillus niger (An)) [µg/mL] | MIC (Fusarium oxysporum (Fo)) [µg/mL] | MIC [1] [µg/mL] | MIC (Proteus vulgaris (Pv); pH 6.8, nutrient agar) [µg/mL] | MIC (Proteus vulgaris (Pv); pH 8.2, nutrient agar) [µg/mL] | MIC [2] [µg/mL] | MIC ([3]; pH 6.8, 30° C.) [µg/mL] | MIC ([3]; pH 8.2, 30° C.) [µg/mL] | MIC (Saccharomyces cerevisiae) [µg/mL] | MIC (Candida albicans (Ca)) [µg/mL] | MIC ([4]; pH 6.8, nutrient agar) [µg/mL] | MIC ([4]; pH 8.2, nutrient agar) [µg/mL] | MIC ([5]; pH 6.8, nutrient agar) [µg/mL] | MIC ([5]; pH 8.2, nutrient agar) [µg/mL] | MIC ([6]; pH 6.8) [µg/mL] | MIC ([6]; pH 8.2) [µg/mL] | MIC (Trichoderma viride (Tv)) [µg/mL] | MIC (Bacillus subtilis (Bs); pH 6.8, nutrient agar) [µg/mL] | MIC (Bacillus subtilis (Bs); pH 8.2, nutrient agar) [µg/mL] | MIC (Escherichia coli (Ec); pH 6.8, nutrient agar) [µg/mL] | further results
N#CC1=C(C#N)Sc2c(cnn(Cc3ccc(Cl)cc3)c2=O)S1 [J, 5,6-dihydro-6-((4-chlorophenyl)methyl)-5-oxo-1,4-dithiino-(2,3-d)-pyridazine-2,3-dicarbonitrile] | < 10 | < 10 | < 10 | 250 (≈ 697 µM) | > 500 | < 10 | > 500 | > 500 | < 10 | < 10 | > 500 | > 500 | 25 (≈ 69.7 µM) | 100 (≈ 279 µM) | > 500 | > 500 | 25 (≈ 69.7 µM) | < 10 | 50 (≈ 139 µM) | 100 (≈ 279 µM) | MIC (Escherichia coli (Ec); pH 8.2, nutrient agar): > 500 µg/mL; MIC (Salmonella choleraesuis; pH 6.8, nutrient agar): > 500 µg/mL; MIC (Salmonella choleraesuis; pH 8.2, nutrient agar): > 500 µg/mL; MIC ([7]; pH 6.8, nutrient agar): > 500 µg/mL; MIC ([7]; pH 8.2, nutrient agar): > 500 µg/mL
N#CC1=C(C#N)Sc2c(cnn(-c3ccc(Cl)c(Cl)c3)c2=O)S1 [F, 5,6-dihydro-6-(3,4-dichlorophenyl)-5-oxo-1,4-dithiino-(2,3-d)-pyridazine-2,3-dicarbonitrile] | 250 (≈ 659 µM) | 500 (≈ 1320 µM) | 100 (≈ 264 µM) | > 500 | > 500 | 250 (≈ 659 µM) | > 500 | > 500 | 250 (≈ 659 µM) | 250 (≈ 659 µM) | > 500 | > 500 | 100 (≈ 264 µM) | 250 (≈ 659 µM) | > 500 | > 500 | > 500 | 100 (≈ 264 µM) | 500 (≈ 1320 µM) | > 500 | MIC (Escherichia coli (Ec); pH 8.2, nutrient agar): > 500 µg/mL; MIC (Salmonella choleraesuis; pH 6.8, nutrient agar): > 500 µg/mL; MIC (Salmonella choleraesuis; pH 8.2, nutrient agar): > 500 µg/mL; MIC ([7]; pH 6.8, nutrient agar): > 500 µg/mL; MIC ([7]; pH 8.2, nutrient agar): > 500 µg/mL
N#CC1=C(C#N)Sc2c(cnn(Cc3ccccc3)c2=O)S1 [I, 5,6-dihydro-6-(phenylmethyl)-5-oxo-1,4-dithiino-(2,3-d)-pyridazine-2,3-dicarbonitrile] | 25 (≈ 77.1 µM) | < 10 | < 10 | 100 (≈ 308 µM) | > 500 | 25 (≈ 77.1 µM) | 250 (≈ 771 µM) | > 500 | < 10 | < 10 | 100 (≈ 308 µM) | > 500 | 50 (≈ 154 µM) | > 500 | > 500 | > 500 | 25 (≈ 77.1 µM) | < 10 | 100 (≈ 308 µM) | > 500 | MIC (Escherichia coli (Ec); pH 8.2, nutrient agar): > 500 µg/mL; MIC (Salmonella choleraesuis; pH 6.8, nutrient agar): 250 µg/mL (≈ 771 µM); MIC (Salmonella choleraesuis; pH 8.2, nutrient agar): > 500 µg/mL; MIC ([7]; pH 6.8, nutrient agar): > 500 µg/mL; MIC ([7]; pH 8.2, nutrient agar): > 500 µg/mL
N#CC1=C(C#N)Sc2c(cnn(-c3cccc(Cl)c3)c2=O)S1 [E, 5,6-dihydro-6-(3-chlorophenyl)-5-oxo-1,4-dithiino-(2,3-d)-pyridazine-2,3-dicarbonitrile] | 50 (≈ 145 µM) | 50 (≈ 145 µM) | 25 (≈ 72.5 µM) | 500 (≈ 1450 µM) | > 500 | 25 (≈ 72.5 µM) | > 500 | > 500 | 25 (≈ 72.5 µM) | 25 (≈ 72.5 µM) | > 500 | > 500 | 250 (≈ 725 µM) | > 500 | > 500 | > 500 | 100 (≈ 290 µM) | 25 (≈ 72.5 µM) | 250 (≈ 725 µM) | 500 (≈ 1450 µM) | MIC (Escherichia coli (Ec); pH 8.2, nutrient agar): > 500 µg/mL; MIC (Salmonella choleraesuis; pH 6.8, nutrient agar): > 500 µg/mL; MIC (Salmonella choleraesuis; pH 8.2, nutrient agar): > 500 µg/mL; MIC ([7]; pH 6.8, nutrient agar): > 500 µg/mL; MIC ([7]; pH 8.2, nutrient agar): > 500 µg/mL
N#CC1=C(C#N)Sc2c(cnn(-c3ccc([N+](=O)[O-])cc3)c2=O)S1 [H, 5,6-dihydro-6-(4-nitrophenyl)-5-oxo-1,4-dithiino-(2,3-d)-pyridazine-2,3-dicarbonitrile] | > 500 | > 500 | > 500 | > 500 | > 500 | > 500 | > 500 | > 500 | > 500 | > 500 | > 500 | > 500 | > 500 | > 500 | > 500 | > 500 | > 500 | > 500 | > 500 | > 500 | MIC (Escherichia coli (Ec); pH 8.2, nutrient agar): > 500 µg/mL; MIC (Salmonella choleraesuis; pH 6.8, nutrient agar): > 500 µg/mL; MIC (Salmonella choleraesuis; pH 8.2, nutrient agar): > 500 µg/mL; MIC ([7]; pH 6.8, nutrient agar): > 500 µg/mL; MIC ([7]; pH 8.2, nutrient agar): > 500 µg/mL
